# Assay results from patent US8445430B2, “Cyclic carboxamide compounds and analogues thereof as of hepatitis C virus” (Achillion Pharmaceuticals, Inc., priority 2008, dated 2013).
# Test system: HCV replicon in Huh-7 cells
# Assay: HCV replicon assay (NPT ELISA) for inhibition of HCV replication
# Format: cell-based
# Conditions: Hepatitis C virus, Huh-7, 72 h, HCV replicon-containing Huh-7 cells, three days incubation; read-out: EC50
# Method: Compounds claimed herein are tested for the ability to inhibit viral replication of the Hepatitis C replicon in cultured cells in which the HCV replicon construct has been incorporated. The HCV replicon system was described by Bartenschlager, et. al (Science, 285, pp. 110-113 (1999)). The replicon system is predictive of in vivo anti-HCV activity; compounds that are active in humans uniformly evidence activity in the replicon assay.
# In this assay HCV replicon containing cells are treated with different concentrations of the test compound to ascertain the ability of the test compound to suppress replication of the HCV replicon. As a positive control, HCV replicon-containing cells are treated with different concentrations of interferon alpha, a known inhibitor of HCV replication. The replicon assay system includes Neomycin Phosphotransferase (NPT) as a component of the replicon itself in order to detect the transcription of replicon gene products in the host cell. Cells in which the HCV replicon is actively replicating have high levels of NPT; the level of NPT is proportional to HCV replication. […] The NPT level of each sample is measured using a captured ELISA.
# A protocol for testing compounds for the ability to inhibit viral replication of the Hepatitis C replicon cultured cells in which the replicon construct has been incorporated, follows.
# The HCV replicon contains, 5′-3′, the HCV-IRES, the neomycin phosphotransferase (neo) gene, the IRES of encephalomyocarditis virus, which directs translation of HCV sequences NS3 to NS5B, and the 3′-NTR. The sequence of the HCV replicon has been deposited in GenBank (Accession no. AJ242652).
# The replicon is transfected into Huh-7 cells using standard methods such as electroporation.
# The equipment and materials include, but are not limited to, Huh-7 HCV replicon-containing cells, maintenance media (DMEM (Dulbecco's modified Eagle media) supplemented with 10% FBS, L-glutamine, non-essential amino acids, penicillin (100 units/ml), streptomycin (100 micrograms/ml), and 500 micrograms/ml of Geneticin (G418), screening media (DMEM supplemented with 10% FBS, L-glutamine, non-essential amino acids, penicillin (100 units/ml) and streptomycin (100 micrograms/ml)), 96 well tissue culture plates (flat bottom), 96 well plates (U bottom for drug dilution), Interferon alpha for positive control, fixation reagent (such as methanol:acetone), primary antibody (rabbit anti-NPTII), secondary antibody: Eu-N11, and enhancement solution.
# HCV replicon-containing cells support high levels of viral RNA replicon replication when their density is suitable. Over-confluency causes decreased viral RNA replication. Therefore, cells must be kept growing in log phase in the presence of 500 micrograms/ml of G418. Generally, cells should be passed twice a week at 1: 4-6 dilution. Cell maintenance is conducted as follows:
# HCV replicon-containing cells are examined under a microscope to ensure that cells growing well. Cells are rinsed once with PBS and 2 ml trypsin is added. The cell/trypsin mixture is incubated at 37° C. in a CO2 incubator for 3-5 minutes. After incubation 10 ml of complete media is added to stop the trypsinization reaction. Cells are blown gently, put into a 15 ml tube, and spun at 1200 rpm for 4 minutes. The trypsin/medium solution is removed. Medium (5 ml) is added and the cells are mixed carefully. The cells are counted.
# The cells are then seeded onto 96-well plates at a density of 6000-7500 cells/100 microliters/well (6-7.5×10^5 cells/10 ml/plate). The plates are then incubated at 37° C. in a 5% CO2 incubator.
# Cells are examined under a microscope approximated 24 hours after seeding and prior to adding drugs. If counting and dilution were performed correctly, cells are 60-70% confluent and nearly all cells should attach and spread evenly in the well.
# HCV replicon-containing cells are rinsed with once PBS once; 2 mls of trypsin are then added. Cells are incubated at 37° C. in a 5% CO2 incubator for 3-5 minutes. […]
row,SMILES,EC50 [µM]
1,"CCOC(=O)[C@@]12C[C@@H]1/C=C\CCCC(=O)N[C@@H](C(C)(C)C)C(=O)N1C[C@H](Oc3cc(-c4ccccc4)nc4cc(OC)ccc34)C[C@H]1C(=O)N2 [Compound 1, (2R,6S,13aR,14aR,16aS,Z)-ethyl 6-tert-butyl-2-(7-methoxy-2-phenylquinolin-4-yloxy)-5,8,16-trioxo-1,2,3,5,6,7,8,9,10,11,13a,14,14a,15,16,16a-hexadecahydrocyclopropa[n]pyrrolo[2,1-c] [1,4,7]triazacyclopentadecine-14a-carboxylate]",> 10
2,"COc1ccc2c(O[C@@H]3C[C@H]4C(=O)N[C@]5(C(=O)NS(=O)(=O)C6CC6)C[C@H]5/C=C\CCCC(=O)N[C@H](C(C)(C)C)C(=O)N4C3)cc(-c3ccccc3)nc2c1 [Compound 5, (2R,6R,13aS,14aR,16aS,Z)-6-tert-butyl-N-(cyclopropylsulfonyl)-2-(7-methoxy-2-phenylquinolin-4-yloxy)-5,8,16-trioxo-1,2,3,5,6,7,8,9,10,11,13a,14,14a,15,16,16a-hexadecahydrocyclopropa[n]pyrrolo[2,1-c] [1,4,7]triazacyclopentadecine-14a-carboxamide]",> 10
3,"CCOC(=O)C12CC1/C=C\CCCC(=O)N(CCCCCC(=O)O)[C@@H](C(C)(C)C)C(=O)N1C[C@H](Oc3cc(-c4ccccc4)nc4cc(OC)ccc34)C[C@H]1C(=O)N2 (stereo partly drawn) [Compound 3, 6-((2R,6S,16aS,Z)-6-tert-butyl-14a-(ethoxycarbonyl)-2-(7-methoxy-2-phenylquinolin-4-yloxy)-5,8,16-trioxo-2,3,5,6,8,9,10,11,13a,14,14a,15,16,16a-tetradecahydrocyclopropa[n]pyrrolo[2,1-c] [1,4,7]triazacyclopentadecin-7(1H)-yl)hexanoic acid]",> 10
4,"COc1ccc2c(O[C@@H]3C[C@H]4C(=O)N[C@]5(C(=O)NS(=O)(=O)C6CC6)C[C@H]5/C=C\CCCC(=O)N[C@@H](CC(=O)N5CCCCC5)C(=O)N4C3)cc(-c3ccccc3)nc2c1 [Compound 15, (2R,6S,14aR,16aS,Z)-N-(cyclopropylsulfonyl)-2-(7-methoxy-2-phenylquinolin-4-yloxy)-5,8,16-trioxo-6-(2-oxo-2-(piperidin-1-yl)ethyl)-1,2,3,5,6,7,8,9,10,11,13a,14,14a,15,16,16a hexadecahydrocyclopropa[n]pyrrolo [2,1-c][1,4,7]triazacyclopentadecine-14a-carboxamide]",< 1
5,"COc1ccc2c(O[C@@H]3C[C@H]4C(=O)NC5(C(=O)NS(=O)(=O)C6CC6)CC5/C=C\CCCC(=O)N[C@@H](CC(=O)OC(C)(C)C)C(=O)N4C3)cc(-c3ccccc3)nc2c1 (stereo partly drawn) [Compound 14, tert-butyl 2-((2R,6S,16aS,Z)-14a-(cyclopropylsulfonylcarbamoyl)-2-(7-methoxy-2-phenylquinolin-4-yloxy)-5,8,16-trioxo-1,2,3,5,6,7,8,9,10,11,13a,14,14a,15,16,16a-hexadecahydrocyclopropa[n]pyrrolo [2,1-c][1,4,7]triazacyclopentadecin-6-yl)acetate]",< 1
6,"COc1ccc2c(O[C@@H]3C[C@H]4C(=O)NC5(C(=O)NS(=O)(=O)C6CC6)CC5/C=C\CCCC(=O)N[C@@H](C(C)(C)C)C(=O)N4C3)cc(-c3ccccc3)nc2c1 (stereo partly drawn) [Compound 4, (2R,6S,16aS,Z)-6-tert-butyl-N-(cyclopropylsulfonyl)-2-(7-methoxy-2-phenylquinolin-4-yloxy)-5,8,16-trioxo-1,2,3,5,6,7,8,9,10,11,13a,14,14a,15,16,16a-hexadecahydrocyclopropa[n]pyrrolo[2,1-c] [1,4,7]triazacyclopentadecine-14a-carboxamide]",1 to 10
